{
  "source": "paper PMC4030628",
  "about": "(Cancer research, 2013)",
  "molecular_target": "STAT3 (Homo sapiens, UniProt P40763)",
  "sequence (P40763 2-770)": "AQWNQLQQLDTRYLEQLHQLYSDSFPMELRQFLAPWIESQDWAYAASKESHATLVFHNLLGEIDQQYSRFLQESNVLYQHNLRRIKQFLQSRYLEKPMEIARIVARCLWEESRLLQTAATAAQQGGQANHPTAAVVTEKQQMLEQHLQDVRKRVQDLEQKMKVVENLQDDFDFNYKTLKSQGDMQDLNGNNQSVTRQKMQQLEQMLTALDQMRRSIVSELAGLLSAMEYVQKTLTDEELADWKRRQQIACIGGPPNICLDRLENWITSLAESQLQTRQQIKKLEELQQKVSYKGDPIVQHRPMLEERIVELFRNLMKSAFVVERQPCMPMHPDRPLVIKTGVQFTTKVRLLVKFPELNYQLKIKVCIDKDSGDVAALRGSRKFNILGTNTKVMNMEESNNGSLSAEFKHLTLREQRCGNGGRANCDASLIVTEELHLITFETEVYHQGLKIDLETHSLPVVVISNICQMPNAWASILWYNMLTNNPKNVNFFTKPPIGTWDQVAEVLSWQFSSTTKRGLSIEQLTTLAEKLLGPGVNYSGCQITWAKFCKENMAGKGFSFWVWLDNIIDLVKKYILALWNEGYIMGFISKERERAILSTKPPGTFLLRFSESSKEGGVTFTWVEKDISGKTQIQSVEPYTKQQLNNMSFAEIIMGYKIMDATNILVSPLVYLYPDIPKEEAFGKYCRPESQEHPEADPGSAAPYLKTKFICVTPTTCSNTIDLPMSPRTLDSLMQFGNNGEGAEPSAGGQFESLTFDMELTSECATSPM",
  "experiment": "fluorescence polarization competition with 5-FAM-GpYLPQTV phosphopeptide",
  "type": "binding",
  "data": [
    {"substance": "S3I-1757", "values": [
      {"measurement": "IC50", "value": "13.5 ± 0.5", "unit": "µM"}
    ]}
  ]
}
